Source: patent US12630600B2 (MEDIMMUNE LIMITED, priority 2022, dated 2026)
Like-named read-outs stand apart in the source and are kept apart here. Starred links: 1 amine or outer side, 2 acyl side, 3 side chain; linkers in the order of their positions; H or OH if unused. Non-standard residues stand in square brackets, D forms with d. Residues, ends and D or L forms follow the SMILES beside them. Groups on a side chain read outwards from the residue. *: point of attachment. C20 diacid = O=C(O)CCCCCCCCCCCCCCCCCCC(=O)*; C18 diacid = O=C(O)CCCCCCCCCCCCCCCCC(=O)*; Dip = N[C@H](C(=O)O)C(c1ccccc1)c1ccccc1; γGlu = O=C(O)[C@H](CCC(=O)[*:2])N[*:1]; Stearoyl = CCCCCCCCCCCCCCCCCC(=O)*; Palmitoyl = CCCCCCCCCCCCCCCC(=O)*; αMeF = C[C@](N)(Cc1ccccc1)C(=O)O; PEG2 = NCCOCCOCCC(=O)O; AEEA = NCCOCCOCC(=O)O; Aib = CC(C)(N)C(=O)O

Columns and labels:
[1] = target: T1, human GLP-1 receptor (hGLP-1R) (Homo sapiens, UniProt P43220); assay: cAMP production (HTRF) in CHO cells expressing human GLP-1 receptor; format: cell-based; details: for % Relative Potency Ratio: % GLP-1R activity relative to GLP-1 / % GlucR activity relative to glucagon; for EC50: cAMP, geometric mean
T1 construct: expressed in transfected cells; host or cells: CHO
T1 sequence (P43220 24-463): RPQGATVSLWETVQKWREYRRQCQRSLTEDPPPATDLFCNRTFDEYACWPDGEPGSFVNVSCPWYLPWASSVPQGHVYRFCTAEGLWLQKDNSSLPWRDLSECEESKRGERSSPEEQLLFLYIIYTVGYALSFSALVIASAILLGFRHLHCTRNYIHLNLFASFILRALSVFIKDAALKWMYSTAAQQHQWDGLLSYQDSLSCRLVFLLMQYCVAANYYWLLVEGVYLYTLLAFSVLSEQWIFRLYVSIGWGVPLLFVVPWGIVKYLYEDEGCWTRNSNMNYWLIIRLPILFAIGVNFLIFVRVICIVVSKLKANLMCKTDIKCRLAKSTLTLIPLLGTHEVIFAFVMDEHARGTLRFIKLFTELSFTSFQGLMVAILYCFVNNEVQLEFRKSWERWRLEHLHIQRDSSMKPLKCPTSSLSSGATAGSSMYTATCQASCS

[2] = target: T2, human glucagon receptor (hGCGR) (Homo sapiens, UniProt P47871); assay: cAMP production (HTRF) in CHO cells expressing human glucagon receptor; format: cell-based
T2 construct: expressed in transfected cells; host or cells: CHO
T2 sequence (P47871 26-477): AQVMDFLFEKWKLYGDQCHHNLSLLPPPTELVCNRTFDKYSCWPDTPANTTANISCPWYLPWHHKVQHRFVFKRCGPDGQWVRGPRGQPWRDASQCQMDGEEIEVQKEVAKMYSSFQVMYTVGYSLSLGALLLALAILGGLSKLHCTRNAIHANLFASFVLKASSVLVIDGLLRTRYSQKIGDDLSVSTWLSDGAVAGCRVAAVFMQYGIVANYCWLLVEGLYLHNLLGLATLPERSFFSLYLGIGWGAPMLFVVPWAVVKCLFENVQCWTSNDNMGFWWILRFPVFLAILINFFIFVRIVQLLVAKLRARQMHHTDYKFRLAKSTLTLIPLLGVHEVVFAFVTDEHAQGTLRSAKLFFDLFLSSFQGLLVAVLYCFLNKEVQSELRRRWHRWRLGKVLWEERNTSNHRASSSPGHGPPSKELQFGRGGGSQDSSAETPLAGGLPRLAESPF
Experimental: Cells were re-suspended in assay buffer at a batch-dependent optimized concentration (typically hGLP-1R cells at 1×10^5 cells/mL, hGCGR cells at 2×10^5 cells/mL).
Cells were added to the assay plate using a multidrop dispenser and incubated at room temperature for 30 minutes before measuring the cAMP level using a cAMP dynamic 2 homogeneous time resolved Fluorescence (HTRF) kit (Cisbio Bioassays #62AM4PEJ) following the two-step protocol as per manufacturer's recommendations. In brief, anti-cAMP cryptate (donor fluorophore) and cAMP-d2 (acceptor fluorophore) were made up separately by diluting each 1 in 20 in conjugate and lysis buffer provided in the kit. Anti-cAMP cryptate was added to all wells of the assay plate, followed by cAMP-d2 added to all wells except non-specific binding (NSB) wells (to which conjugate and lysis buffer was added).
Data was transformed to % Delta F as described in the manufacturer's guidelines and analyzed by 4-parameter logistic fit to determine EC50 values.

[3] = Table 9, peptides modified at position 10, geometric mean, CHO cells, read-out: hGluc-R EC50
[4] = Table 6, modification at position 17, CHO cells expressing hGLP-1R, read-out: hGLP-1R EC50
[5] = Table 6, modification at position 17, CHO cells expressing hGCGR, geometric mean, read-out: hGluc-R EC50
[6] = Table 10, peptides modified at position 13, geometric mean, CHO cells, read-out: hGluc-R EC50

In the case of `CCCCCCCCCCCCCCCC(=O)N[C@@H](CCC(=O)NCCOCCOCCC(=O)NCCOCCOCCC(=O)NCCCC[C@H](NC(=O)[C@H](CC(=O)O)NC(=O)[C@H](CO)NC(=O)[C@@H](NC(=O)[C@](C)(Cc1ccccc1)NC(=O)[C@H](CO)NC(=O)CNC(=O)[C@H](CCC(N)=O)NC(=O)C(C)(C)NC(=O)[C@@H](N)Cc1c[nH]cn1)[C@@H](C)O)C(=O)N[C@@H](CO)C(=O)N[C@@H](CCCCN)C(=O)N[C@H](C(=O)N[C@@H](CC(C)C)C(=O)N[C@@H](CC(=O)O)C(=O)N[C@@H](CO)C(=O)N[C@@H](CCCNC(=N)N)C(=O)N[C@@H](C)C(=O)N[C@@H](C)C(=O)N[C@@H](CCC(N)=O)C(=O)N[C@@H](CC(=O)O)C(=O)N[C@@](C)(Cc1ccccc1)C(=O)N[C@H](C(=O)N[C@@H](CCC(=O)O)C(=O)N[C@@H](Cc1c[nH]c2ccccc12)C(=O)N[C@H](C(=O)N[C@@H](C)C(=O)N[C@@H](CC(N)=O)C(=O)N[C@H](C(N)=O)[C@@H](C)O)[C@@H](C)CC)C(C)C)[C@@H](C)CC)C(=O)O` [Peptide 396] (H-H[Aib]QGS[αMeF]TSDK([PEG2-PEG2-γGlu-Palmitoyl])SKILDSRAAQD[αMeF]VEWIANT-NH2), the “% Relative Potency Ratio” value ([1]; Table 9) is reported as 40.2 and the EC50 [2, 3] is reported as 11.8 pM.

In the case of `CCCCCCCCCCCCCCCCCC(=O)N[C@@H](CCC(=O)N[C@@H](CCC(=O)NCCOCCOCCC(=O)NCCOCCOCCC(=O)NCCCC[C@H](NC(=O)[C@H](CO)NC(=O)[C@H](CC(=O)O)NC(=O)[C@H](CC(C)C)NC(=O)[C@@H](NC(=O)[C@H](CCCCN)NC(=O)[C@H](CO)NC(=O)[C@@H](NC(=O)[C@H](CC(=O)O)NC(=O)[C@H](CO)NC(=O)[C@@H](NC(=O)[C@](C)(Cc1ccccc1)NC(=O)[C@H](CO)NC(=O)CNC(=O)[C@H](CCC(N)=O)NC(=O)C(C)(C)NC(=O)[C@@H](N)Cc1c[nH]cn1)[C@@H](C)O)C(C)C)C(c1ccccc1)c1ccccc1)C(=O)N[C@@H](C)C(=O)N[C@@H](C)C(=O)N[C@@H](CCC(N)=O)C(=O)N[C@@H](CC(=O)O)C(=O)N[C@@](C)(Cc1ccccc1)C(=O)N[C@H](C(=O)N[C@@H](CCC(=O)O)C(=O)NC(C)(C)C(=O)N[C@@H](CC(C)C)C(=O)N[C@@H](CCC(=O)O)C(=O)N[C@@H](C)C(=O)NCC(=O)NCC(N)=O)C(C)C)C(=O)O)C(=O)O` [Peptide 44] (H-H[Aib]QGS[αMeF]TSDVSK[Dip]LDSK([PEG2-PEG2-γGlu-γGlu-Stearoyl])AAQD[αMeF]VE[Aib]LEAGG-NH2; N-terminus assumed), the EC50 [1, 4] is reported as 2.12 pM, the “% Relative Potency Ratio” value ([1]; Table 6) is reported as 17.0 and the EC50 [2, 5] is reported as 18.2 pM.

`CC[C@H](C)[C@H](NC(=O)[C@H](Cc1c[nH]c2ccccc12)NC(=O)[C@H](CCCCNC(=O)CC[C@H](NC(=O)CC[C@H](NC(=O)CCOCCOCCNC(=O)CC[C@H](NC(=O)CC[C@H](NC(=O)CCCCCCCCCCCCCCCCCCC(=O)O)C(=O)O)C(=O)O)C(=O)O)C(=O)O)NC(=O)[C@@H](NC(=O)[C@H](Cc1ccccc1)NC(=O)[C@H](CC(=O)O)NC(=O)[C@H](CCC(N)=O)NC(=O)[C@H](C)NC(=O)[C@H](C)NC(=O)[C@H](CCC(N)=O)NC(=O)[C@H](CO)NC(=O)[C@H](CC(=O)O)NC(=O)[C@H](CC(C)C)NC(=O)[C@](C)(Cc1ccccc1)NC(=O)[C@H](CCCCN)NC(=O)[C@H](CO)NC(=O)[C@@H](NC(=O)[C@H](CC(=O)O)NC(=O)[C@H](CO)NC(=O)[C@@H](NC(=O)[C@](C)(Cc1ccccc1)NC(=O)[C@H](CO)NC(=O)CNC(=O)[C@H](Cc1c[nH]cn1)NC(=O)C(C)(C)NC(=O)[C@@H](N)Cc1c[nH]cn1)[C@@H](C)O)C(C)C)C(C)C)C(=O)N[C@@H](C)C(=O)N[C@@H](CC(N)=O)C(=O)N[C@H](C(N)=O)[C@@H](C)O` [Peptide 357] was tested, and the “% Relative Potency Ratio” value ([1]; Table 8) was 1.2, the EC50 ([1]; hGLP-1R EC50 (pM), Table 8, peptides modified at position 24, CHO cells) was 917 pM and the EC50 ([2]; hGluc-R EC50 (pM), Table 8, peptides modified at position 24, geometric mean, CHO cells) was 550 pM.

For `CCCCCCCCCCCCCCCC(=O)N[C@@H](CCC(=O)NCCOCCOCCC(=O)NCCOCCOCCC(=O)NCCCC[C@H](NC(=O)[C@H](CCCCN)NC(=O)[C@H](CO)NC(=O)[C@@H](NC(=O)[C@H](CC(=O)O)NC(=O)[C@H](CO)NC(=O)[C@@H](NC(=O)[C@](C)(Cc1ccccc1)NC(=O)[C@H](CO)NC(=O)CNC(=O)[C@H](CCC(N)=O)NC(=O)C(C)(C)NC(=O)[C@@H](N)Cc1c[nH]cn1)[C@@H](C)O)C(C)C)C(=O)N[C@@H](CC(C)C)C(=O)N[C@@H](CC(=O)O)C(=O)N[C@@H](CO)C(=O)N[C@@H](CCCNC(=N)N)C(=O)N[C@@H](C)C(=O)N[C@@H](C)C(=O)N[C@@H](CCC(N)=O)C(=O)N[C@@H](CC(=O)O)C(=O)N[C@@](C)(Cc1ccccc1)C(=O)N[C@H](C(=O)N[C@@H](CCC(=O)O)C(=O)N[C@@H](Cc1c[nH]c2ccccc12)C(=O)N[C@H](C(=O)N[C@@H](C)C(=O)N[C@@H](CC(N)=O)C(=O)N[C@H](C(N)=O)[C@@H](C)O)[C@@H](C)CC)C(C)C)C(=O)O` [Peptide 401] (H-H[Aib]QGS[αMeF]TSDVSKK([PEG2-PEG2-γGlu-Palmitoyl])LDSRAAQD[αMeF]VEWIANT-NH2), the “% Relative Potency Ratio” value ([1]; Table 10) was 32.3 and the EC50 [2, 6] was 9.54 pM.

Compound `CC(C)C[C@H](NC(=O)[C@H](Cc1c[nH]c2ccccc12)NC(=O)[C@H](CCCNC(=N)N)NC(=O)[C@@H](NC(=O)[C@H](Cc1ccccc1)NC(=O)[C@H](CC(=O)O)NC(=O)[C@H](CCC(N)=O)NC(=O)[C@H](C)NC(=O)[C@H](CCCNC(=N)N)NC(=O)[C@H](CCCCNC(=O)COCCOCCNC(=O)COCCOCCNC(=O)CC[C@H](NC(=O)CCCCCCCCCCCCCCCCCCC(=O)O)C(=O)O)NC(=O)[C@@H](NC(=O)[C@H](CC(=O)O)NC(=O)[C@H](CC(C)C)NC(=O)[C@](C)(Cc1ccccc1)NC(=O)[C@H](CCCCN)NC(=O)[C@H](CO)NC(=O)[C@@H](NC(=O)[C@H](CC(=O)O)NC(=O)[C@H](CO)NC(=O)[C@@H](NC(=O)[C@H](Cc1ccccc1)NC(=O)[C@@H](NC(=O)CNC(=O)[C@H](CCC(N)=O)NC(=O)C(C)(C)NC(=O)[C@@H](N)Cc1c[nH]cn1)[C@@H](C)O)[C@@H](C)O)C(C)C)[C@@H](C)O)C(C)C)C(=O)N[C@@H](CCC(=O)O)C(=O)N[C@@H](C)C(=O)NC(C)(C)C(=O)NCC(=O)O` [Peptide 407] has an EC50 [1, 4] of 209 pM and an EC50 [2, 5] of 462 pM.

`CC[C@H](C)[C@H](NC(=O)C(C)(C)NC(=O)[C@H](CCC(N)=O)NC(=O)[C@@H](NC(=O)[C@](C)(Cc1ccccc1)NC(=O)[C@H](CC(=O)O)NC(=O)[C@H](CCC(N)=O)NC(=O)[C@H](C)NC(=O)[C@H](C)NC(=O)[C@H](CCCNC(=N)N)NC(=O)[C@H](CO)NC(=O)[C@H](CC(=O)O)NC(=O)[C@H](CC(C)C)NC(=O)[C@H](CCCCNC(=O)COCCOCCNC(=O)COCCOCCNC(=O)CC[C@H](NC(=O)CC[C@H](NC(=O)CCCCCCCCCCCCCCCCCCC(=O)O)C(=O)O)C(=O)O)NC(=O)[C@H](CCCCN)NC(=O)[C@H](CO)NC(=O)[C@@H](NC(=O)[C@H](CC(=O)O)NC(=O)[C@H](CO)NC(=O)[C@@H](NC(=O)[C@](C)(Cc1ccccc1)NC(=O)[C@H](CO)NC(=O)CNC(=O)[C@H](Cc1c[nH]cn1)NC(=O)C(C)(C)NC(=O)[C@@H](N)Cc1c[nH]cn1)[C@@H](C)O)C(C)C)C(C)C)C(=O)N[C@@H](C)C(=O)N[C@@H](CC(N)=O)C(=O)N[C@H](C(N)=O)[C@@H](C)O` [Peptide 405] (H-H[Aib]HGS[αMeF]TSDVSKK([AEEA-AEEA-γGlu-γGlu-C20 diacid])LDSRAAQD[αMeF]VQ[Aib]IANT-NH2) was tested, and the EC50 ([1]; Table 10, peptides modified at position 13, CHO cells, read-out: hGLP-1R EC50) was 1040 pM, the “% Relative Potency Ratio” value ([1]; Table 10) was 16.3 and the EC50 [2, 6] was 8590 pM.

`CC[C@H](C)[C@H](NC(=O)C(C)(C)NC(=O)[C@H](CCC(N)=O)NC(=O)[C@@H](NC(=O)[C@](C)(Cc1ccccc1)NC(=O)[C@H](CC(=O)O)NC(=O)[C@H](CCC(N)=O)NC(=O)[C@H](C)NC(=O)[C@H](C)NC(=O)[C@H](CCCNC(=N)N)NC(=O)[C@H](CO)NC(=O)[C@H](CC(=O)O)NC(=O)[C@H](CC(C)C)NC(=O)[C@](C)(Cc1ccccc1)NC(=O)[C@H](CCCCN)NC(=O)[C@H](CO)NC(=O)[C@H](CCCCNC(=O)COCCOCCNC(=O)COCCOCCNC(=O)CC[C@H](NC(=O)CCCCCCCCCCCCCCCCC(=O)O)C(=O)O)NC(=O)[C@H](CC(=O)O)NC(=O)[C@H](CO)NC(=O)[C@@H](NC(=O)[C@](C)(Cc1ccccc1)NC(=O)[C@H](CO)NC(=O)CNC(=O)[C@H](Cc1c[nH]cn1)NC(=O)C(C)(C)NC(=O)[C@@H](N)Cc1c[nH]cn1)[C@@H](C)O)C(C)C)C(=O)N[C@@H](C)C(=O)N[C@@H](CC(N)=O)C(=O)N[C@H](C(N)=O)[C@@H](C)O` [Peptide 392] (H-H[Aib]HGS[αMeF]TSDK([AEEA-AEEA-γGlu-C18 diacid])SK[αMeF]LDSRAAQD[αMeF]VQ[Aib]IANT-NH2) was tested, and the EC50 ([1]; Table 9, peptides modified at position 10, CHO cells, read-out: hGLP-1R EC50) was 312 pM, the “% Relative Potency Ratio” value ([1]; Table 9) was 43.8 and the EC50 [2, 3] was 6920 pM.
